The values below come from patent publication US6451568B1, “Cloning of human choline ethanolaminephospho transferases synthesis of phosphatidyl choline phosphatidyle thanolamine and platelet activating factor” (Dalhousie University, priority 1998, dated 2002).

Where “and” joins values, the source holds several entries; their conditions need not be identical. Equal values may be shown once. Entries after “also recorded” stand apart in the source; their conditions may differ.

The target in series [1] is T1, hCEPT1p (Homo sapiens, UniProt Q9Y6K0).
T1 construct: All of the hCEPT1p detected in S. cerevisiae was full length; made in house; host or cells: S. cerevisiae HJ091 (cpt1::LEU2 ept1-), plasmid pAH9, microsomal membranes
T1 sequence (Q9Y6K0 1-416): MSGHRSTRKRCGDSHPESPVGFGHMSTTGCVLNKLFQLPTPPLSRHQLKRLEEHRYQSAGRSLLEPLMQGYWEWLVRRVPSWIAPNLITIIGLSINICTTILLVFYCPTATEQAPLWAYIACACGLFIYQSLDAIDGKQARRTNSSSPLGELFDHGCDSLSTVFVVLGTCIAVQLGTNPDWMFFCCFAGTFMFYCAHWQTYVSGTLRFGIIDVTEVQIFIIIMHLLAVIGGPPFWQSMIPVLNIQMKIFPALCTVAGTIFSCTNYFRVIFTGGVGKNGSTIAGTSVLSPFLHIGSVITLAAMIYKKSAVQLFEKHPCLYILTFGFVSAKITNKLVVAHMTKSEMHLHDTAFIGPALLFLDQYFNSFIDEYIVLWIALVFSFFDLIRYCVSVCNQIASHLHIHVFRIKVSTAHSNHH
As to the kind of experiment: Choline-/ethanolaminephosphotransferase enzyme assay, microsomal membranes of S. cerevisiae HJ091 expressing hCEPT1. The format is biochemical. The following applies: for Specific activity with CDP-choline (in words): CDP-choline as donor, synthesis of PAF, acyl-PAF, di10:0 PtdCho; for Enzyme activity, CDP-choline: phosphobase donor CDP-choline; for Enzyme activity, CDP-choline / Enzyme activity, CDP-ethanolamine: diradylglycerol as acceptor substrate, hCEPT1p in S. cerevisiae HJ091 microsomes; for Enzyme activity, CDP-ethanolamine: phosphobase donor CDP-ethanolamine. The method, then: Diradylglycerols or ceramides were dried under nitrogen gas and resuspended in 0.015% (w/v) Tween 20™ by sonication. […] Assays were incubated at 37° C. for 15 min and activity terminated by the addition of 3 ml CHCl3/ CH3OH (2/1, v/v) followed by 1.5 ml 0.9% (w/v) KCl. Tubes were vortexed and phase separation facilitated by centrifugation at 2000 g for 10 min. The aqueous phase was aspirated and the organic phase was washed twice with 1.5 ml 40% (v/v) CH3OH. An aliquot of the organic phase was dried in a scintillation vial and radioactivity was determined.

Series [2] deals with T2, hCEPT2 (Homo sapiens, UniProt Q8WUD6).
T2 construct: A full length cDNA was isolated using the Genetrapper™ system technology; expressed in transfected cells; host or cells: HEK293s cells, plasmid pCMVsport-hCEPT2 (clone from the pCMV-Sport human brain cDNA library), microsomal membranes
T2 sequence (Q8WUD6 2-406): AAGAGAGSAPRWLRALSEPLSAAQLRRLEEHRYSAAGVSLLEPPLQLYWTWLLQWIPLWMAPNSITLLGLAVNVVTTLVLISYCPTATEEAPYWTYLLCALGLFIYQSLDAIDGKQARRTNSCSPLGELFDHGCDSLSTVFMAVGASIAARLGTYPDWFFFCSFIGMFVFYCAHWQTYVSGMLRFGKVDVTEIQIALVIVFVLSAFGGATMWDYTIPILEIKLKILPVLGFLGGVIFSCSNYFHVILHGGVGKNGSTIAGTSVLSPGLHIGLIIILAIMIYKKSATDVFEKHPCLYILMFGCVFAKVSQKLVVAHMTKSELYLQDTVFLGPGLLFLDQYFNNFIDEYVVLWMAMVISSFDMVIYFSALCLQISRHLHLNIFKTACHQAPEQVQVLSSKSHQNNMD
As to the kind of experiment: Choline-/ethanolaminephosphotransferase activity of microsomes from HEK293s cells overexpressing hCEPT2. The format is biochemical. An excerpt: A full length cDNA was isolated using the Genetrapper™ system technology (Life Technologies). A primer corresponding to the most 5′ RACE extneded sequence in hand, […] (SEQ ID NO: 11) was biotinylated using terminal deoxynucleotide transferase and hybridized in solution to a single stranded human brain cDNA library that had been generated by digestion of the library with Gene II protein and exonuclease III. Avidin bound to magnetic beads was used to selectively precipitate the biotinylated probe/hybridized cDNA complex, thus enriching the library for cDNAs complementary to the oligonucleotide used. The single stranded cDNAs were extended using Klenow and E. coli were transformed and screened for positive clones with the end labeled antisense oligo, […], found within the original EST 67440. Plasmid DNA from positive colonies was amplified and hCEPT2 specific inserts confirmed and sized by PCR.
Diradylglycerols or ceramides were dried under nitrogen gas and resuspended in 0.015% (w/v) Tween 20™ by sonication. Unless otherwise indicated, assay buffer contained 100 mM Tris-HCl (pH 8.0), 20 mM MgCl2, 1 mM EDTA, 1 mM diradylglycerol or ceramide (final Tween 20 concentration of 0.00375%, w/v), and 10 μg of microsomal protein. […] Assays were incubated at 37° C. for 15 min and activity terminated by the addition of 3 ml CHCl3/ CH3OH (2/1, v/v) followed by 1.5 ml 0.9% (w/v) KCl. Tubes were vortexed and phase separation facilitated by centrifugation at 2000 g for 10 min. The aqueous phase was aspirated and the organic phase was washed twice with 1.5 ml 40% (v/v) CH3OH. An aliquot of the organic phase was dried in a scintillation vial and radioactivity was determined. Samples were routinely analyzed by thin layer chromatography on silica gel plates in a solvent system of CHCl3/CH3OH/NH4OH/H2) (70/30/4/2, v/v) to confirm the synthesis of PtdCho, PtdEtn, and PAF and their analogues.

For the molecule `CCCCCCCCCCCCCCCCOCC(CO)OC(C)=O` (stereo not drawn) [1-O-16:0/2:0], the “Specific activity with CDP-choline (in words)” value in series [1] (listed as 1O-16:0/2:0) was “highest specific activities”; in series [1] (listed as 16:0/2:0) it was “High activities”. Besides, the “Enzyme activity, CDP-choline” value in series [1] was 106.0 ± 5.6 nmol/min/mg.
A word on the Km: it is the concentration of substrate that gives half-maximal velocity. Take `NCCOP(=O)(O)OP(=O)(O)OC[C@H]1O[C@@H](n2ccc(N)nc2=O)[C@H](O)[C@@H]1O` [CDP-ethanolamine]: the “Vmax(app)” value in series [1] (di18:1 as the diradylglycerol substrate) was determined as 12.8 nmol/min/mg. Further, the Km in series [1] (di18:1 as the diradylglycerol substrate, read-out: Km(app)) was 109 µM.
As for `O[C@@H](CS)[C@@H](O)CS` [DTT], in series [1] (DTT 0-5 mM in assay mix, regardless of the diradylglycerol substrate, data not shown), the “Effect of DTT on cholinephosphotransferase activity” value is “insensitive; also recorded: did not affect”.
`CCCCCCCC(=O)OC[C@H](CO)OC(=O)CCCCCCC` [di8:0]: in series [1], the “Enzyme activity, CDP-choline” value worked out at 54.9 ± 6.4 nmol/min/mg and the “Enzyme activity, CDP-ethanolamine” value was 3.1 ± 0.4 nmol/min/mg.
Regarding `CCCCCCCCCC(=O)OCC(CO)OC(=O)CCCCCCCCC` (stereo not drawn) [di10:0], in series [1], the “Specific activity with CDP-choline (in words)” value is reported as “highest specific activities”; the “Enzyme activity, CDP-choline” value stood at 172.5 ± 9.8 nmol/min/mg; the “Enzyme activity, CDP-ethanolamine” value was determined as 3.7 ± 0.4 nmol/min/mg.
For `CCCCCCCCCCCC(=O)OCC(CO)OC(=O)CCCCCCCCCCC` (stereo not drawn) [di12:0], in series [1], the “Enzyme activity, CDP-choline” value amounted to 27.2 ± 6.9 nmol/min/mg and the “Enzyme activity, CDP-ethanolamine” value turned out to be 2.7 ± 0.3 nmol/min/mg.
With `CCCCCCCCCCCCCC(=O)OC[C@H](CO)OC(=O)CCCCCCCCCCCCC` [di14:0], in series [1], the “Enzyme activity, CDP-choline” value was 6.7 ± 0.2 nmol/min/mg and the “Enzyme activity, CDP-ethanolamine” value turned out to be 3.7 ± 0.1 nmol/min/mg.
Take `CCCCCCCCCCCCCCCC(=O)OC[C@H](CO)OC(=O)CCCCCCCCCCCCCCC` [di16:0]: in series [1], the “Enzyme activity, CDP-choline” value turned out to be 4.3 ± 0.2 nmol/min/mg and the “Enzyme activity, CDP-ethanolamine” value was determined as 3.5 ± 0.2 nmol/min/mg.

B1: hCEPT2: human choline/ethanolaminephosphotransferase 2, SEQ ID NO:4 (protein)
chain: MAAGAGAGSAPRWLRALSEPLSAAQLRRLEEHRYSAAGVSLLEPPLQLYWTWLLQWIPLWMAPNSITLLGLAVNVVTTLVLISYCPTATEEAPYWTYLLCALGLFIYQSLDAIDGKQARRTNSCSPLGELFDHGCDSLSTVFMAVGASIAARLGTYPDWFFSCSFIGMFVFYCAHWQTYVSGMLRFGKVDVTEIQIALVIVFVLSAFGGATMWDYTIPILEIKLKILPVLGFLGGVIFSCSNYFHVILHGGVGKNGSTIAGTSVLSPGLHIGLIIILAIMIYKKSATDVFEKHPCLYILMFGCVFAKVSQKLVVAHMTKSELYLQDTVFLGPGLLFLDQYFNNFIDEYVVLWMAMVISSFDMVIYFSALCLQISRHLHLNIFKTACHQAPEQVQVLSSKSHQNNMD
On to B1, for which the “Cholinephosphotransferase activity, mean” value in series [2] (CDP-AA choline, mean of duplicates) was determined as 10.673 nmol/min/mg. The Cholinephosphotransferase activity in series [2] (CDP-AA choline, single determinations) was 10.638 nmol/min/mg and 10.708 nmol/min/mg. Further, the “Ethanolaminephosphotransferase activity, mean” value in series [2] (CDP-AA ethanolamine, mean of duplicates) is listed as 2.427 nmol/min/mg. For the same molecule, the Ethanolaminephosphotransferase activity in series [2] (CDP-AA ethanolamine, single determinations) is 2.169 nmol/min/mg and 2.685 nmol/min/mg.
